Values quoted from earlier work as cited in patent US5618841A, “Composition of iodophor teat dip for the prevention of mastitis and a process for using the same” (priority 1994, dated 1997).

Columns and labels:
microorganism = settings: rank order
[1] = first ionization constant
[2] = 25° C.

| Structure (SMILES) | relative antimicrobial strength, with respect to citric acid (microorganism) | pKa [1] | solubility in water [2] [%] |
| --- | --- | --- | --- |
| O=C(O)CO [Glycolic acid] | Mandelic acid>Lactic acid>Glycolic acid>Malic acid>Citric acid |  |  |
| CC(O)C(=O)O (stereo not drawn) [Lactic acid] | Mandelic acid>Lactic acid>Glycolic acid>Malic acid>Citric acid |  |  |
| O=C(O)CC(O)C(=O)O (stereo not drawn) [Malic acid] | Mandelic acid>Lactic acid>Glycolic acid>Malic acid>Citric acid |  |  |
| O=C(O)C(O)c1ccccc1 (stereo not drawn) [Mandelic acid] | Mandelic acid>Lactic acid>Glycolic acid>Malic acid>Citric acid | 3.39 |  |
| II [elemental iodine] |  |  | 0.03 |
